Assay in all cases: growth of human tumour cells (NCI), 48 h
For test [1], the system named is ACHN renal.
The subject of test [2] is BT-549 breast.
Test [3] relates to HS 578T breast.
The test system of test [4] is IGROV1 ovarian.
The test system of test [5] is MCF7 breast.
The test system of test [6] is SF-295 CNS.
Test [7] concerns SNB-75 CNS.
In test [8] the test system is U251 CNS.
Test [9] relates to UACC-62 melanoma.
Test [10] deals with SR leukemia.

Where “and” joins values, the source holds several entries; their conditions need not be identical. Equal entries are not always repeated.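 Protocol summary: plate cells (96-well), add compound at 5 concentrations, incubate 48 h, interpolate endpoints linearly. GI50 marks 50% less growth. TGI is the concentration that stops growth completely.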

`COC(=O)[C@]12CC[C@@H](C)[C@H](C)[C@@H]1C1=CC[C@@H]3[C@@]4(C)C(C=O)=C[C@@](C)(COS(C)(=O)=O)C4=CC[C@@]3(C)[C@]1(C)CC2`: the GI50 in test [1] is 0.171 µM; in [2] it was 0.211 µM; in test [3], 0.234 µM; in test [4], 0.318 µM; in test [5], 0.265 µM; in test [6], 0.296 µM. The figures for the GI50 in [7], in test [8] and in [9] were 0.161 µM, 0.23 µM and 0.2 µM, respectively. In addition, the TGI in test [1] turned out to be 0.317 µM; in test [2] it was 0.63 µM; in test [3], 0.711 µM; in test [4], 1.06 µM; in [5], 1.37 µM; in [6] it was 1.26 µM. Further, the figures for the TGI in test [7], in [8] and in test [9] were 0.61 µM, 0.606 µM and 0.551 µM, respectively.

On to `CCCC(O)[C@@]1(CC)CC(C)C(O)(C2(C)C[C@H](C)[C@@H](C(CC)C(=O)C(C)[C@@H](O)[C@H](C)C3OC(O)(C(CC)C(=O)O)[C@@H](C)C(O)C3CC)O2)O1` (some centres undefined), for which the TGI in [1] worked out at 6.78 µM; in [2] it was 1.41 µM; in [3] it was 2.99 µM; in test [4] it was 9.81 µM; in test [5], 2.17 µM; in [6], 4.91 µM. In addition, the TGI in [7] was 2.18 µM; in [8] it was 1.82 µM; in [9] it was 2.86 µM.

Regarding `[O-][n+]1c2cccc(O)c2[n+]([O-])c2cccc(O)c21`, the TGI is 51.8 µM in test [1]; above 100 µM in test [2]; above 100 µM in test [3]; 69 µM in test [4]; above 100 µM in [5]; above 100 µM in test [6]. Further, the TGI in [7] and in [8] was above 100 µM throughout.

`Cc1cc(OC2OC(CO)C(O)C(O)C2O)ccc1O` (centres undefined): the TGI in test [1], in test [2], in test [3], in test [4], in [5] and in test [6] was above 100 µM each time. For the same molecule, the TGI in test [7], in test [8] and in test [9] was above 100 µM each time.

`CC(C)(C)O/N=C/c1cc(NC(=S)c2ccccc2)ccc1Cl`: the TGI is 32.7 µM in test [1]; 35.1 µM in test [2]; 63 µM in [3]; 27.1 µM in [4]; above 100 µM in test [5]; 51.3 µM in test [6]. For the same molecule, the TGI was 47.2 µM in test [10], 45.5 µM in test [8] and 32.7 µM in [9].

Take `Cc1ccc2ccc3c4ccccc4ccc3c2c1`: the GI50 in test [1] is 31.9 µM; in [2], 30.9 µM; in test [3], 27.7 µM; in test [4], 20 µM; in test [5] it was 15.5 µM; in test [7], 39.3 µM. Moreover, the values for the GI50 in test [8] and in test [9] were 28.3 µM and 21.8 µM, respectively. In addition, the TGI was above 100 µM in test [1]; above 100 µM in [2]; above 100 µM in [3]; 94.8 µM in [4]; 39.3 µM in test [5]; above 100 µM in [7]. The TGI in test [8] and in test [9] was above 100 µM throughout.

Consider `COc1ccc([C@@]23Oc4cc(OC)cc(OC)c4[C@]2(O)[C@H](O)[C@H](C(=O)N(C)C)[C@H]3c2ccccc2)cc1`, for which the GI50 is 0.0225 µM in test [3]; 0.0248 µM in [4]; 0.0124 µM in test [6]; 0.0149 µM in [7]; 0.016 µM in test [10]; 0.0157 µM in test [8]. Besides, the GI50 in [9] was 0.0243 µM. Moreover, in [6], the TGI was 0.0433 µM and 0.0867 µM.

Regarding `COc1ccc(N(CC(=O)O)N=O)cc1`, the TGI in test [1], in test [2], in test [3], in test [4], in test [5] and in test [6] was above 100 µM in each case. The TGI in test [10], in test [8] and in [9] was above 100 µM each time.

`Nc1nc(Cl)c2ncn(Cc3ccc(C45CC6CC(CC(C6)C4)C5)c(OCc4cc(F)c(F)cc4F)c3)c2n1`: the GI50 in test [1] is 3.4 µM; in [2], 3.86 µM; in [3], 12.1 µM; in [4], 2.77 µM; in test [5], 3.12 µM; in [6] it was 3.44 µM. For the same molecule, the GI50 in test [7] is 27.5 µM; in [8], 3.04 µM; in test [9], 1.64 µM. Moreover, the TGI in [1] is 13.7 µM; in test [2], 13 µM; in test [3] it was 71.3 µM; in [4], 13.8 µM; in test [5] it was 16.3 µM; in [6], 17.1 µM. Besides, the TGI in [7] was above 100 µM; in test [8], 16.3 µM; in [9], 12.6 µM.

With `Oc1cn(-c2ccc(Cl)cc2)nc1-c1n[nH]c(=S)n1-c1ccc(F)cc1`, the GI50 is 28.8 µM in test [1]; 16.5 µM in [2]; 29.1 µM in test [3]; 7.12 µM in test [4]; 24.8 µM in test [5]; 14.8 µM in test [6]. Besides, the GI50 in test [8] is 15.8 µM; in [9], 12 µM. Also, the TGI was above 100 µM in test [1]; 56.9 µM in [2]; above 100 µM in [3]; 24.1 µM in test [4]; above 100 µM in test [5]; 66.9 µM in test [6]. Further, the values for the TGI in test [10], in [8] and in test [9] were above 100 µM, above 100 µM and 28 µM, respectively.

Take `O=C(O)c1ccccc1NCn1nc(-c2ccccc2O)oc1=S`: the GI50 was 26.9 µM in test [1]; 73.8 µM in test [2]; above 100 µM in [3]; above 100 µM in test [4]; 46.7 µM in test [5]; above 100 µM in [6]. Further, the GI50 was 48.3 µM in test [8] and 33.7 µM in test [9]. For the same molecule, the TGI in test [1] is 82.8 µM; in test [2], above 100 µM; in test [3], above 100 µM; in test [4], above 100 µM; in test [5] it was above 100 µM; in test [6], above 100 µM. For the same molecule, the TGI in [8] was above 100 µM; in test [9] it was 92.3 µM.

`O=C1c2cccc3c(N4CCOCC4)ccc(c23)C(=O)N1CCN1CCN(CCCCCN2CCN(CCN3C(=O)c4cccc5c(N6CCOCC6)ccc(c45)C3=O)CC2)CC1`: the GI50 is 62.2 µM in [1]; above 100 µM in test [2]; above 100 µM in [3]; 77.6 µM in [5]; 72 µM in [6]; above 100 µM in [7]. For the same molecule, the results for the GI50 in test [8] and in test [9] were above 100 µM and 77.6 µM, respectively. For the same molecule, the TGI in [1], in test [2], in test [3], in [5], in test [6] and in [7] was above 100 µM throughout. The TGI in [8] and in [9] was above 100 µM in each case.

For the molecule `CN(C)C1C(=O)C(C(N)=O)=C(O)C2(O)C(=O)C3=C(O)c4c(O)cccc4C(C)(O)C3CC12.[Cl][Sb]([Cl])[Cl]` (centres undefined), the GI50 in [1] is 4.75 µM; in [2] it was 2.95 µM; in test [3] it was 3 µM; in test [4] it was 2.96 µM; in test [5], 3.55 µM; in test [10], 2.88 µM. In addition, the GI50 in [9] was 2.55 µM. Moreover, the TGI in test [1] is 18.7 µM; in test [2], 10.4 µM; in test [3] it was above 100 µM; in [4], 8.5 µM; in test [5] it was 13 µM; in test [10], 7.36 µM. In [9], the TGI was 7.45 µM.

Take `COc1cc2c(c3c1c(=O)c1ccccc1n3C)C=C([N+](=O)[O-])C(C)(C)O2`: the TGI in test [1] was 0.464 µM; in test [3], above 100 µM; in test [4], above 100 µM; in [5], above 100 µM; in test [6], above 100 µM; in [7], above 100 µM. In addition, the TGI in test [10], in test [8] and in test [9] was above 100 µM each time.

Consider `COc1cccc(-c2cc(=O)c3cc(N4CCN(C)CC4)ccc3[nH]2)c1`, for which the GI50 in [1] is 3.74 µM; in test [4], 2.86 µM; in test [5] it was 3.72 µM; in [6], 8.34 µM; in [7], 0.612 µM; in [9] it was 1.46 µM. Moreover, the TGI is above 100 µM in test [1]; 4.88 µM in test [3]; above 100 µM in [4]; above 100 µM in test [5]; 65.1 µM in [7]; 2.49 µM in test [10]. Further, in test [9], the TGI is above 100 µM.
